Data from ChEMBL document CHEMBL1153245, “A profile of the in vitro anti-tumor activity of imidazolium-based ionic liquids” (2010).

Legend:
Assay type in all cases: functional
HCC 2998 = experiment: Anticancer activity against human HCC2998 cells assessed cell growth at 10 uM after 48 hrs by sulforhodamine B assay relative to control
A549 = experiment: Anticancer activity against human A549 cells assessed cell growth at 10 uM after 48 hrs by sulforhodamine B assay relative to control
OVCAR-5 = experiment: Anticancer activity against human OVCAR5 cells assessed cell growth at 10 uM after 48 hrs by sulforhodamine B assay relative to control
CAKI-1 = experiment: Anticancer activity against human Caki1 cells assessed cell growth at 10 uM after 48 hrs by sulforhodamine B assay relative to control
SF-268 = experiment: Anticancer activity against human SF268 cells assessed cell growth at 10 uM after 48 hrs by sulforhodamine B assay relative to control
NCI-H322M = experiment: Anticancer activity against human NCI-H322M cells assessed cell growth at 10 uM after 48 hrs by sulforhodamine B assay relative to control
HOP-62 = experiment: Anticancer activity against human HOP62 cells assessed cell growth at 10 uM after 48 hrs by sulforhodamine B assay relative to control
HOP-92 = experiment: Anticancer activity against human HOP92 cells assessed cell growth at 10 uM after 48 hrs by sulforhodamine B assay relative to control
T47D = experiment: Anticancer activity against human T47D cells assessed cell growth at 10 uM after 48 hrs by sulforhodamine B assay relative to control
RXF 393 = experiment: Anticancer activity against human RXF393 cells assessed cell growth at 10 uM after 48 hrs by sulforhodamine B assay relative to control
MOLT-4 = experiment: Anticancer activity against human MOLT4 cells assessed cell growth at 10 uM after 48 hrs by sulforhodamine B assay relative to control
OVCAR-3 = experiment: Anticancer activity against human OVCAR-3 cells assessed cell growth at 10 uM after 48 hrs by sulforhodamine B assay relative to control
HCT-116 = experiment: Anticancer activity against human HCT116 cells assessed cell growth at 10 uM after 48 hrs by sulforhodamine B assay relative to control
CCRF-CEM = experiment: Anticancer activity against human CCRF-CEM cells assessed cell growth at 10 uM after 48 hrs by sulforhodamine B assay relative to control
SR = experiment: Anticancer activity against human SR cells assessed cell growth at 10 uM after 48 hrs by sulforhodamine B assay relative to control
NCI/ADR-RES = experiment: Anticancer activity against human NCI/ADR-RES cells assessed cell growth at 10 uM after 48 hrs by sulforhodamine B assay relative to control
UO-31 = experiment: Anticancer activity against human UO31 cells assessed cell growth at 10 uM after 48 hrs by sulforhodamine B assay relative to control
TK-10 = experiment: Anticancer activity against human TK10 cells assessed cell growth at 10 uM after 48 hrs by sulforhodamine B assay relative to control
NCI-H460 = experiment: Anticancer activity against human NCI-H460 cells assessed cell growth at 10 uM after 48 hrs by sulforhodamine B assay relative to control
UACC-62 = experiment: Anticancer activity against human UACC62 cells assessed cell growth at 10 uM after 48 hrs by sulforhodamine B assay relative to control
SF-295 = experiment: Anticancer activity against human SF295 cells assessed cell growth at 10 uM after 48 hrs by sulforhodamine B assay relative to control
NCI-H23 = experiment: Anticancer activity against human NCI-H23 cells assessed cell growth at 10 uM after 48 hrs by sulforhodamine B assay relative to control
OVCAR-4 = experiment: Anticancer activity against human OVCAR4 cells assessed cell growth at 10 uM after 48 hrs by sulforhodamine B assay relative to control
MDA-MB-231 = experiment: Anticancer activity against human MDA-MB-231 cells assessed cell growth at 10 uM after 48 hrs by sulforhodamine B assay relative to control
NCI-H522 = experiment: Anticancer activity against human NCI-H522 cells assessed cell growth at 10 uM after 48 hrs by sulforhodamine B assay relative to control
[1] = Anticancer activity against human RPMI8266 cells assessed cell growth at 10 uM after 48 hrs by sulforhodamine B assay relative to control
OVCAR-8 = experiment: Anticancer activity against human OVCAR8 cells assessed cell growth at 10 uM after 48 hrs by sulforhodamine B assay relative to control
SK-OV-3 = experiment: Anticancer activity against human SKOV3 cells assessed cell growth at 10 uM after 48 hrs by sulforhodamine B assay relative to control
PC-3 = experiment: Anticancer activity against human PC3 cells assessed cell growth at 10 uM after 48 hrs by sulforhodamine B assay relative to control
SNB-75 = experiment: Anticancer activity against human SNB75 cells assessed cell growth at 10 uM after 48 hrs by sulforhodamine B assay relative to control
K562 = experiment: Anticancer activity against human K562 cells assessed cell growth at 10 uM after 48 hrs by sulforhodamine B assay relative to control
M14 = experiment: Anticancer activity against human M14 cells assessed cell growth at 10 uM after 48 hrs by sulforhodamine B assay relative to control
COLO 205 = experiment: Anticancer activity against human COLO205 cells assessed cell growth at 10 uM after 48 hrs by sulforhodamine B assay relative to control
DU-145 = experiment: Anticancer activity against human DU145 cells assessed cell growth at 10 uM after 48 hrs by sulforhodamine B assay relative to control
SN12C = experiment: Anticancer activity against human SN12C cells assessed cell growth at 10 uM after 48 hrs by sulforhodamine B assay relative to control
SW-620 = experiment: Anticancer activity against human SW620 cells assessed cell growth at 10 uM after 48 hrs by sulforhodamine B assay relative to control
IGROV-1 = experiment: Anticancer activity against human IGROV1 cells assessed cell growth at 10 uM after 48 hrs by sulforhodamine B assay relative to control
LOX IMVI = experiment: Anticancer activity against human LOXIMVI cells assessed cell growth at 10 uM after 48 hrs by sulforhodamine B assay relative to control
HL-60(TB) = experiment: Anticancer activity against human HL-60(TB) cells assessed cell growth at 10 uM after 48 hrs by sulforhodamine B assay relative to control
ACHN = experiment: Anticancer activity against human ACHN cells assessed cell growth at 10 uM after 48 hrs by sulforhodamine B assay relative to control
SF-539 = experiment: Anticancer activity against human SF539 cells assessed cell growth at 10 uM after 48 hrs by sulforhodamine B assay relative to control
A498 = experiment: Anticancer activity against human A498 cells assessed cell growth at 10 uM after 48 hrs by sulforhodamine B assay relative to control
KM12 = experiment: Anticancer activity against human KM12 cells assessed cell growth at 10 uM after 48 hrs by sulforhodamine B assay relative to control

**Q.** With `CCCCCCCC[n+]1ccn(C)c1.[Cl-]` as the compound, how does the Activity (HCC 2998) read?
**A.** 77.19%

**Q.** And the Activity (A549)?
**A.** 85.73%

**Q.** And the Activity (OVCAR-5)?
**A.** 101.85%

**Q.** What about the Activity (CAKI-1) of the same compound?
**A.** 66.65%

**Q.** What about the Activity (SF-268) of the same compound?
**A.** 95.77%

**Q.** What about the Activity (NCI-H322M) of the same compound?
**A.** 95.53%

**Q.** And the Activity (HOP-62)?
**A.** 90.78%

**Q.** What about the Activity (HOP-92) of the same compound?
**A.** 106.43%

**Q.** And the Activity (T47D)?
**A.** 87.08%

**Q.** What about the Activity (RXF 393) of the same compound?
**A.** 78.03%

**Q.** What about the Activity (MOLT-4) of the same compound?
**A.** 81.09%

**Q.** And the Activity (OVCAR-3)?
**A.** 81.96%

**Q.** What about the Activity (HCT-116) of the same compound?
**A.** 62.3%

**Q.** And the Activity (CCRF-CEM)?
**A.** 121.49%

**Q.** And the Activity (SR)?
**A.** 88.57%

**Q.** What about the Activity (NCI/ADR-RES) of the same compound?
**A.** 95.09%

**Q.** And the Activity (UO-31)?
**A.** 85.09%

**Q.** What about the Activity (TK-10) of the same compound?
**A.** 77.56%

**Q.** What about the Activity (NCI-H460) of the same compound?
**A.** 101.53%

**Q.** What about the Activity (UACC-62) of the same compound?
**A.** 81.12%

**Q.** What about the Activity (SF-295) of the same compound?
**A.** 101.39%

**Q.** And the Activity (NCI-H23)?
**A.** 62.26%

**Q.** And the Activity (OVCAR-4)?
**A.** 61.98%

**Q.** What about the Activity (MDA-MB-231) of the same compound?
**A.** 74.81%

**Q.** What about the Activity (NCI-H522) of the same compound?
**A.** 72.78%

**Q.** And the Activity [1]?
**A.** 122.18%

**Q.** What about the Activity (OVCAR-8) of the same compound?
**A.** 77.68%

**Q.** And the Activity (SK-OV-3)?
**A.** 98.42%

**Q.** What about the Activity (PC-3) of the same compound?
**A.** 97.45%

**Q.** What about the Activity (SNB-75) of the same compound?
**A.** 83.9%

**Q.** What about the Activity (K562) of the same compound?
**A.** 63.96%

**Q.** And the Activity (M14)?
**A.** 87.47%

**Q.** And the Activity (COLO 205)?
**A.** 97.68%

**Q.** And the Activity (DU-145)?
**A.** 99.82%

**Q.** What about the Activity (SN12C) of the same compound?
**A.** 93.85%

**Q.** What about the Activity (SW-620) of the same compound?
**A.** 89.37%

**Q.** And the Activity (IGROV-1)?
**A.** 96.33%

**Q.** And the Activity (LOX IMVI)?
**A.** 71.93%

**Q.** What about the Activity (HL-60(TB)) of the same compound?
**A.** 94.06%

**Q.** What about the Activity (ACHN) of the same compound?
**A.** 75.93%

**Q.** What about the Activity (SF-539) of the same compound?
**A.** 71.01%

**Q.** What about the Activity (A498) of the same compound?
**A.** 101.4%

**Q.** And the Activity (KM12)?
**A.** 81.14%

**Q.** Which Activity (HCC 2998) does the source give for `CCCCCCCCOS(=O)(=O)[O-].CCCCCCCC[n+]1ccn(C)c1` here?
**A.** 69.81%

**Q.** What about the Activity (A549) of the same compound?
**A.** 82.78%

**Q.** What about the Activity (OVCAR-5) of the same compound?
**A.** 98.17%

**Q.** And the Activity (CAKI-1)?
**A.** 56.81%

**Q.** And the Activity (SF-268)?
**A.** 92.2%

**Q.** And the Activity (NCI-H322M)?
**A.** 89.12%

**Q.** What about the Activity (HOP-62) of the same compound?
**A.** 90.54%

**Q.** And the Activity (HOP-92)?
**A.** 107.58%

**Q.** And the Activity (T47D)?
**A.** 80.27%

**Q.** What about the Activity (RXF 393) of the same compound?
**A.** 84%

**Q.** What about the Activity (MOLT-4) of the same compound?
**A.** 86.99%

**Q.** What about the Activity (OVCAR-3) of the same compound?
**A.** 81.64%

**Q.** What about the Activity (HCT-116) of the same compound?
**A.** 55.91%

**Q.** What about the Activity (CCRF-CEM) of the same compound?
**A.** 97.94%

**Q.** What about the Activity (SR) of the same compound?
**A.** 82.08%

**Q.** And the Activity (NCI/ADR-RES)?
**A.** 94.1%

**Q.** And the Activity (UO-31)?
**A.** 71.08%

**Q.** And the Activity (TK-10)?
**A.** 68.07%

**Q.** What about the Activity (NCI-H460) of the same compound?
**A.** 95.98%

**Q.** What about the Activity (UACC-62) of the same compound?
**A.** 85.18%

**Q.** And the Activity (SF-295)?
**A.** 80.68%

**Q.** And the Activity (NCI-H23)?
**A.** 56.59%

**Q.** What about the Activity (OVCAR-4) of the same compound?
**A.** 60.6%

**Q.** What about the Activity (MDA-MB-231) of the same compound?
**A.** 66.28%

**Q.** What about the Activity (NCI-H522) of the same compound?
**A.** 57.44%

**Q.** And the Activity [1]?
**A.** 116.11%

**Q.** What about the Activity (OVCAR-8) of the same compound?
**A.** 76.03%

**Q.** What about the Activity (SK-OV-3) of the same compound?
**A.** 82.36%

**Q.** What about the Activity (PC-3) of the same compound?
**A.** 94.3%

**Q.** And the Activity (SNB-75)?
**A.** 84.66%

**Q.** And the Activity (K562)?
**A.** 93.71%

**Q.** What about the Activity (M14) of the same compound?
**A.** 84%

**Q.** And the Activity (COLO 205)?
**A.** 82.4%

**Q.** And the Activity (DU-145)?
**A.** 96.94%

**Q.** What about the Activity (SN12C) of the same compound?
**A.** 92.64%

**Q.** And the Activity (SW-620)?
**A.** 86.25%

**Q.** What about the Activity (IGROV-1) of the same compound?
**A.** 72.84%

**Q.** What about the Activity (LOX IMVI) of the same compound?
**A.** 68.86%

**Q.** And the Activity (HL-60(TB))?
**A.** 82.07%

**Q.** What about the Activity (ACHN) of the same compound?
**A.** 67.5%

**Q.** What about the Activity (SF-539) of the same compound?
**A.** 65.31%

**Q.** And the Activity (A498)?
**A.** 90.58%

**Q.** What about the Activity (KM12) of the same compound?
**A.** 76.23%
